# Reference: patent publication US8227423B2 (priority 2004, dated 2012)
# Ends that are not written are not given here.
# How the values were obtained:
# Bacillus subtilis = assay type: cell-based
Sequence,antibacterial effect in time kill assay (CFU) (Bacillus subtilis),detergent-like (lytic) action (sheep red blood cells)
RFARKGALRQKNV [Protein kinase C],no effect,–
"TRKKLFHIFHATIRSR [PAD-1.17, TRKKLFHIFHATIRSR]",–,did not appear to act as a detergent
